# Where a name gives a salt, the structure may show the parent alone. Marks after values point to notes of the source that are not given here.
# Columns and labels:
# BMMs [1] = experiment: RANKL-induced signaling, immunoblot of phospho-ERK, p38, JNK, IκBα; type: cell-based, C57BL/6 mice; conditions: BMMs pretreated 1 hour
# Text: Data represent mean ± SD. […] Actin serves as a loading control.
# [2] = tested on: OVX-induced osteoporotic ddY mice; experiment: Tibia weights (wet, dry, ash) in OVX mice; type: in vivo
# Procedure: The right sides of femur and tibia were weighed and then dried at 120 °C for 8 hours. The dried bones were carbonized at 800 °C for 6 hours in a furnace (Daihan Scientific, Korea) to detect ash absolute weights, after measurement of BMD and failure load. To reduce the individual body weight differences, the relative weight (%) was calculated using body weight at sacrifice and absolute weight as [Relative bone weights = (Absolute bone weight/Body weight at sacrifice) ×100]. In addition, ashed bones were ground and dissolved in nitric acid. In diluted solution, Ca and P contents were calculated (mg/g bone) using an orthocresolphthalein complex and enzyme methods, respectively. The Ca/P ratio (%) was calculated as (Tibia Ca contents/Tibia P contents) ×100.
# Supplementary Table S4. Tibia Weights in OVX Mice Values are expressed mean ± S.D. of eight mice Risedronate sodium was administered at 2.5mg/kg levels a p<0.01 as compared with sham control […]
# material OVX = ovariectomy
# Groups Tibia absolute weights (g) Tibia relative weights (% of body weight)Wet Dry Ash Wet Dry Ash
# [3] = Body weight changes in OVX mice; type: in vivo, ddY mice; conditions: risedronate 2.5 mg/kg; Ewha-18278 2.5, 5, 10 and 20 mg/kg; 28 days
# Procedure: The study was reviewed and approved by the Institutional Animal Care and Use Committee (IACUC) of Center for Laboratory Animal Sciences, Ewha Industry-University Cooperation Foundation, Ewha Womans University. Experimental methods were carried out in accordance with the approved ethic guidelines in Ewha Industry-University Cooperation Foundation, Ewha Womans University. Beginning 4 weeks after OVX, the female ddY mice received 2.5, 5, 10, or 20 mg/kg of #18–278, 2.5 mg/kg of risedronate, or vehicle once daily for 28 days. The Changes in body weight, bone weight, bone mineral density (BMD), failure load (FL), bone calcium (Ca), inorganic phosphorus (P) contents, histology and histomorphology were monitored. Serum osteocalcin and bone specific alkaline phosphatase (bALP) were monitored in mice receiving Ewha-18278.
# R esi dronat e 2. 5mg/kg t reated mi ce […]
# D ay after administration (d)
# Supplementary Figure S7. Body weight changes in OVX mice. We selected eight mice per group showing more increases of body weights as compared with sham-operated mice and regarded as good OVX animals at four weeks after OVX surgery, consequently, significant increases of body weights were detected in all OVX groups as compared with sham control mice throughout 28 days of […]
# mice, in the present study. Values are expressed mean ± S.D. of eight mice. Risedronate sodium was administered at 2.5mg/kg levels. […]
# BMMs [4] = experiment: RANKL-induced intracellular ROS generation (DCF fluorescence); type: cell-based, C57BL/6 mice
# Text: RANKL-induced ROS generation was monitored by confocal microscopic analysis of DCF fluorescence. Data represent three repeated experiments and are shown as mean ± SD (n = 3). […] (D) TRAP^+ MNCs containing more than 3 nuclei were counted. Data represent mean ± S.D., *P < 0.005. Scale bar, 500 μm.
# DCF-DA is oxidized by ROS to the highly fluorescent DCF. After washed with HBSS, the cells were then examined with a laser scanning confocal microscope (LSM510; Zeiss) equipped with an argon laser tuned to an excitation wavelength of 488 nm, an LP505 emission filter (515–540 nm), and a Zeiss Axiovert objective lens. Images were digitized and stored at a resolution of 512 by 512 pixels. Five groups of cells were randomly selected from each sample, and the mean relative fluorescence intensity for each group of cells was measured with a Zeiss vision system and then averaged for all groups. All experiments were repeated at least three times.
# BMMs [5] = experiment: Phagocytosis assay, FITC-zymosan uptake; type: cell-based, C57BL/6 mice; conditions: pretreated 1 hour
# Procedure: After the incubations, cells were washed three times with PBS, and the quantities of internalized fluorescent particles were determined by flow cytometry. FITC-zymosan uptake was quantified as mean fluorescence intensity (MFI).
# Supplementary Figure S3. (A) Ewha-18278 compounds can not directly scavenge superoxide or other reactive species in vitro. ROS (H2O2) measured with lucigenin. Reaction mixtures contained 1 […]
# Luminescence measured over 30 min at 37
# °C with luminometor (Gloma X luminometor, Turner BioSystem). […]
# the phagocytosis of zymosan. […]
# incubated with FITC-zymosan particles, and internalized fluorescence was measured by flow cytometry. The data are presented as the MFI of internalized FITC. Data represent mean ± S.D. […]
# [6] = tested on: OVX-induced osteoporotic ddY mice; experiment: Tibia histopathology-histomorphometry in OVX mice; type: in vivo
# [7] = 2.5 mg/kg oral once daily 28 days
# [8] = 5 mg/kg oral once daily 28 days
# [9] = 10 mg/kg oral once daily 28 days
# [10] = 20 mg/kg oral once daily 28 days
smiles,measurement,setting,value
"CCCc1c(-c2ccccc2)nn(-c2ccccn2)c1O [Ewha-18278, 3-phenyl-1-(pyridin-2-yl)-4-propyl-1H-5-hydroxypyrazole HCl]","activation of MAPKs (JNK, p38, ERK) and phosphorylation of IκBα",BMMs [1],suppressed activation
same,"Tibia absolute weights, Ash",[2]; [7],0.027 g
same,"Tibia absolute weights, Dry",[2]; [7],0.051 g
same,"Tibia absolute weights, Wet",[2]; [7],0.070 g
same,"Tibia absolute weights, Ash",[2]; [8],0.030 g
same,"Tibia absolute weights, Dry",[2]; [8],0.051 g
same,"Tibia absolute weights, Wet",[2]; [8],0.071 g
same,"Tibia absolute weights, Ash",[2]; [9],0.030 g
same,"Tibia absolute weights, Dry",[2]; [9],0.052 g
same,"Tibia absolute weights, Wet",[2]; [9],0.071 g
same,"Tibia absolute weights, Ash",[2]; [10],0.032 g
same,"Tibia absolute weights, Dry",[2]; [10],0.052 g
same,"Tibia absolute weights, Wet",[2]; [10],0.071 g
same,body weights as compared with OVX control mice,[3],no meaningful changes
same,RANKL-mediated ROS generation,BMMs [4]; RANKL 200 ng/ml 10 minutes,reduced RANKL-mediated ROS generation in dose- and time-dependent manners
same,concentration at plateau of inhibition of RANKL-dependent ROS generation,BMMs [4]; after 60 min,10 µM
same,phagocytosis of FITC-zymosan (MFI) vs DMSO,BMMs [5],n.s.
same,BV/TV (trabecular bone volume),[6]; [7],19.04 ± 3.10 ^a %
same,Ct.Th (cortical bone thickness),[6]; [7],122.04 ± 11.96 ^a μm
same,"N.OC/BS (osteoclast cell number, N/epiphyseal)",[6]; [7],14.13 ± 3.44 ^a numbers
same,"Tb.N (trabecular bone number, N/epiphyseal)",[6]; [7],8.63 ± 1.60 ^a numbers
same,Tb.Th (trabecular bone thickness),[6]; [7],34.89 ± 5.16 ^a μm
same,BV/TV (trabecular bone volume),[6]; [8],29.39 ± 2.41 ^bc %
same,Ct.Th (cortical bone thickness),[6]; [8],137.51 ± 10.96 ^ac μm
same,"Tb.N (trabecular bone number, N/epiphyseal)",[6]; [8],12.50 ± 1.31 ^ac numbers
same,Tb.Th (trabecular bone thickness),[6]; [8],48.34 ± 6.87 ^ac μm
same,BV/TV (trabecular bone volume),[6]; [9],33.36 ± 4.35 ^c %
same,Ct.Th (cortical bone thickness),[6]; [9],182.11 ± 12.48 ^c μm
same,"N.OC/BS (osteoclast cell number, N/epiphyseal)",[6]; [9],8.13 ± 2.23 ^ac numbers
same,"Tb.N (trabecular bone number, N/epiphyseal)",[6]; [9],15.00 ± 2.00 ^ac numbers
same,Tb.Th (trabecular bone thickness),[6]; [9],53.36 ± 5.94 ^ac μm
same,BV/TV (trabecular bone volume),[6]; [10],33.78 ± 3.47 ^c %
same,Ct.Th (cortical bone thickness),[6]; [10],194.28 ± 15.50 ^c μm
same,"N.OC/BS (osteoclast cell number, N/epiphyseal)",[6]; [10],6.88 ± 2.36 ^ac numbers
same,"Tb.N (trabecular bone number, N/epiphyseal)",[6]; [10],17.13 ± 1.81 ^c numbers
same,Tb.Th (trabecular bone thickness),[6]; [10],55.98 ± 7.15 ^ac μm

# Reference: publication PMC4792161, “A novel pyrazole derivative protects from ovariectomy-induced osteoporosis through the inhibition of NADPH oxidase” (Scientific Reports, 2016)
